Several values for one entry are separate records, joined by “and”; a condition that tells them apart may be missing. Equal entries are not always repeated.
Assays:
NMDA receptor = experiment: Competition binding, [^3 H]CGP 39653, mouse cortical membranes; settings: for Effect on binding of [^3 H]CGP 39653: 0.01 to 100 uM
Method: (§1) Affinity of selected reference drugs for the NMDA receptor
(§2) labeled with [^3 H]CGP 39653 and the PCP receptor
(§3) labeled with [^3 H]MK-801, relatively to the effect of
(§4) NOS inhibitors, in mouse cortical membranes.
(§5) Competition binding assays were carried out using 14 nM [^3 H]CGP 39653 and 2 nM [^3 H]MK-801. L-NAME and NO-Arg at a concentration range of 0.01 to 100 uM, each, had no effect (N.E.) on the binding of the two tritium labeled ligands. Data represents the mean ±S.D. of three experiments.

[1] = tested on: cocaine induced seizures and lethality in Swiss-Webster mice; experiment: Effect of repeated cocaine administration on convulsive response and survival of mice pretreated with saline or NOS inhibitor; type: in vivo; settings: for Protection against development of convulsions / Protection against lethal effects of cocaine: 60 min before cocaine 45 mg/kg/day, 7 days; for Convulsions (number of animals that seized) / Convulsions (percentage) / Survival (number of animals that survived) / Survival (percentage): saline or L-NAME (100 mg/kg) 60 min before cocaine 45 mg/kg i.p. daily
From the text: In the search for safer agents that may be useful in treating cocaine induced toxicity, Applicant has discovered that drugs that block the enzyme nitric oxide (NO) synthase completely abolish cocaine induced seizures and lethality in mice (see TABLE 1). NO synthase inhibitors such as N-nitro-L-arginine methyl ester (L-NAME) and N-nitro-L-arginine (NO-Arg) are known drugs used clinically for the treatment of septic shock. […] Thus, it is though that NO, a putative neurotransmitter in the brain, is involved in DA-receptor mediated neurotoxicity. Applicant's recent studies are the first to document that NOS inhibitors have protective effects against cocaine induced toxicity. FIG. 1 and FIG. 2. Briefly, Swiss-Webster mice were pretreated with either saline, L-NAME (100 mg/kg/day) or NO-Arg (25 mg/kg/day) 60 min before the administration of cocaine (45 mg/kg/day) for 7 days. The progressive increase in the adverse and toxic effects of repetitive cocaine was manifested by an increase in the convulsive and lethal responses to cocaine. Following the 7th day of saline/cocaine treatment only 60% of the animals survived, and 100% of the animals seized.
Effect of repeated cocaine administration on convulsive
response and survival of Swiss-Webster mice pretreated with
either saline or L-NAME. Mice received a Single i.p.
injection of cocaine (45 mg/kg) each day 60 min after
pretreatment with either saline or L-NAME (100 mg/kg). Data
is expressed as the total number of animals that seized
and survived following the drugs treatment in three separate
experiments. Numbers in parentheses indicate percentage.

PCP receptor = experiment: Competition binding, [^3 H]MK-801, mouse cortical membranes; settings: for [^3 H]MK-801 Ki / Ki: 2 nM [^3 H]MK-801, mouse cortical membranes, mean ± S.D. of three experiments, N.E. = no effect at 0.01 to 100 uM; for Effect on binding of [^3 H]MK-801: 0.01 to 100 uM
Method: as §1, §2, §3, §4, §5

[2] = 14 nM [^3 H]CGP 39653, mouse cortical membranes, mean ± S.D. of three experiments, N.E. = no effect at 0.01 to 100 uM

Structure (SMILES) | Convulsions (number of animals that seized) ([1]; day 1) | Convulsions (percentage) ([1]; day 1) [%] | Survival (number of animals that survived) ([1]; day 1) | Survival (percentage) ([1]; day 1) [%] | Convulsions (number of animals that seized) ([1]; day 2) | Convulsions (percentage) ([1]; day 2) [%] | Survival (number of animals that survived) ([1]; day 2) | Survival (percentage) ([1]; day 2) [%] | Convulsions (number of animals that seized) ([1]; day 3) | Convulsions (percentage) ([1]; day 3) [%] | Survival (number of animals that survived) ([1]; day 3) | Survival (percentage) ([1]; day 3) [%] | Convulsions (number of animals that seized) ([1]; day 4) | Convulsions (percentage) ([1]; day 4) [%] | Survival (number of animals that survived) ([1]; day 4) | Survival (percentage) ([1]; day 4) [%] | Convulsions (number of animals that seized) ([1]; day 5) | Convulsions (percentage) ([1]; day 5) [%] | Survival (number of animals that survived) ([1]; day 5) | Survival (percentage) ([1]; day 5) [%] | further results
NC(CCCP(=O)(O)O)C(=O)O (stereo not drawn) [AP-5] |  |  |  |  |  |  |  |  |  |  |  |  |  |  |  |  |  |  |  |  | Ki (NMDA receptor; [2]): 2230 ± 180 nM
COC(=O)[C@@H](N)CCCN=C(N)N[N+](=O)[O-] [L-NAME, N-nitro-L-arginine methyl ester] | 0/30 | 0 | 30/30 | 100 | 1/30 | 3 | 30/30 | 100 | 2/30 | 6 | 30/30 | 100 | 0/30 | 0 | 30/30 | 100 | 1/30 | 3 | 30/30 | 100 | Protection against development of convulsions ([1]; L-NAME 100 mg/kg/day): completely protected; Protection against lethal effects of cocaine ([1]; L-NAME 100 mg/kg/day): completely protected; Convulsions (number of animals that seized) ([1]; day 6): 1/30; Convulsions (percentage) ([1]; day 6): 3%; Survival (number of animals that survived) ([1]; day 6): 30/30; Survival (percentage) ([1]; day 6): 100%; Convulsions (number of animals that seized) ([1]; day 7): 0/30; Convulsions (percentage) ([1]; day 7): 0%; Survival (number of animals that survived) ([1]; day 7): 30/30; Survival (percentage) ([1]; day 7): 100%; [^3 H]MK-801 Ki (PCP receptor): N.E.; Effect on binding of [^3 H]MK-801 (PCP receptor): no effect; [^3 H]CGP 39653 Ki (NMDA receptor; [2]): N.E.; Effect on binding of [^3 H]CGP 39653 (NMDA receptor): no effect
C[C@]12N[C@H](Cc3ccccc31)c1ccccc12 [MK-801] |  |  |  |  |  |  |  |  |  |  |  |  |  |  |  |  |  |  |  |  | Ki (PCP receptor): 3 ± 0.2 nM
NC(=NCCC[C@H](N)C(=O)O)N[N+](=O)[O-] [NO-Arg, N-nitro-L-arginine] |  |  |  |  |  |  |  |  |  |  |  |  |  |  |  |  |  |  |  |  | Protection against development of convulsions ([1]; NO-Arg 25 mg/kg/day): completely protected; Protection against lethal effects of cocaine ([1]; NO-Arg 25 mg/kg/day): completely protected; [^3 H]MK-801 Ki (PCP receptor): N.E.; Effect on binding of [^3 H]MK-801 (PCP receptor): no effect; [^3 H]CGP 39653 Ki (NMDA receptor; [2]): N.E.; Effect on binding of [^3 H]CGP 39653 (NMDA receptor): no effect
c1ccc(C2(N3CCCCC3)CCCCC2)cc1 [PCP] |  |  |  |  |  |  |  |  |  |  |  |  |  |  |  |  |  |  |  |  | Ki (PCP receptor): 55 ± 4 nM
COC(=O)[C@H]1[C@@H](OC(=O)c2ccccc2)C[C@@H]2CC[C@H]1N2C [cocaine] | 4/36 | 11 | 36/36 | 100 | 14/36 | 38 | 36/36 | 100 | 20/36 | 55 | 36/36 | 100 | 22/34 | 65 | 34/36 | 94 | 24/33 | 72 | 33/36 | 91 | Convulsions had occurred (in words) ([1]; by the seventh day, uniform daily doses of cocaine): in all animals; Convulsions (number of animals that seized) ([1]; day 6): 26/27; Convulsions (percentage) ([1]; day 6): 96%; Survival (number of animals that survived) ([1]; day 6): 27/36; Survival (percentage) ([1]; day 6): 75%; Convulsions (number of animals that seized) ([1]; day 7): 22/22; Convulsions (percentage) ([1]; day 7): 100%; Survival (number of animals that survived) ([1]; day 7): 22/36; Survival (percentage) ([1]; day 7): 60% and 61%
